Measured values taken from PMC8156604, “Development of Phosphodiesterase–Protein-Kinase Complexes as Novel Targets for Discovery of Inhibitors with Enhanced Specificity” (International Journal of Molecular Sciences, 2021).

Legend:
RegA–RD complex = target: T1, RegA–RD complex (Dictyostelium discoideum, UniProt P05987+Q23917); settings: cGMP 250 µM added to preformed 2fc-RD–RegA complex
T1 construct: gene pkaR
T1 sequence (P05987 1-327): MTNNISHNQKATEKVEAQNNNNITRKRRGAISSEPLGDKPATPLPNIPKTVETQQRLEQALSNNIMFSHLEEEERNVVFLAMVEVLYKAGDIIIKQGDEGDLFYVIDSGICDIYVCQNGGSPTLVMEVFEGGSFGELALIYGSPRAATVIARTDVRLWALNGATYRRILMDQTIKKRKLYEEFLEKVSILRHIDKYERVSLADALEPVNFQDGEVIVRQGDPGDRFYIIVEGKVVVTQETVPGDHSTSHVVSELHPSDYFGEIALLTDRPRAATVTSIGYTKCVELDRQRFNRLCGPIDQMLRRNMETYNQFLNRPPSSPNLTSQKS
T1 sequence (Q23917 1-793): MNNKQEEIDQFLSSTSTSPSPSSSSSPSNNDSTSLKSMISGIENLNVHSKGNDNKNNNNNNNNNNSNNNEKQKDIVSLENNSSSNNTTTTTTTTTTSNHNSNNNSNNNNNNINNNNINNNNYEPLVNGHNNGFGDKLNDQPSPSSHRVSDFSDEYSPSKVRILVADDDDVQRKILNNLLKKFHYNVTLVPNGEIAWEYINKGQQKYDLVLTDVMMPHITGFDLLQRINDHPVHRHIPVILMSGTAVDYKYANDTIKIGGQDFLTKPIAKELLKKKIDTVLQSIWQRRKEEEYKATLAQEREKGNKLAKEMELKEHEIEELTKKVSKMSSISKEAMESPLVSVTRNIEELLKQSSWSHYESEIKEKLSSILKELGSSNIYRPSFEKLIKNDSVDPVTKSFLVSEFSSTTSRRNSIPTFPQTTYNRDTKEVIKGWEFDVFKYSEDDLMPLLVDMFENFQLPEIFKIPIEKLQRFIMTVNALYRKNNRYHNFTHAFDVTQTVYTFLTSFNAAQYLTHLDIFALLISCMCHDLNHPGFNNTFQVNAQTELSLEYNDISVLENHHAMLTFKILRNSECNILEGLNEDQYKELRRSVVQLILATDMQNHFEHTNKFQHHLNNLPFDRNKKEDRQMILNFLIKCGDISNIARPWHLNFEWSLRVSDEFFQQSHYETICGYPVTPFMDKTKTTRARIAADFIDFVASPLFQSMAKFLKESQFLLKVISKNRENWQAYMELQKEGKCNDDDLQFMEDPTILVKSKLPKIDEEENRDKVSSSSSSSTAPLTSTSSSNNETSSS

PDE5–PKG complex = target: T2, PDE5–PKG complex (Homo sapiens, UniProt O76074); settings: PDE5 with cGMP 100 µM, added to 2fg-PKG
T2 construct: gene PDE5A

Q: For `Nc1nc2c(ncn2[C@@H]2O[C@@H]3COP(=O)(O)O[C@H]3[C@H]2O)c(=O)[nH]1` [cGMP], which “fluorescence polarization, displacement of 2fluo-cAMP” value (RegA–RD complex) is on record?
A: addition of cGMP (lilac plot) resulted in only a partial decrease in FP

Q: And the “fluorescence polarization, 2fluo-cGMP-bound PKG probe” value (PDE5–PKG complex)?
A: suggestive of processive hydrolysis of cGMP by PDE5–PKG composite site
